The text below walks through data of patent US12448399B2, “Cereblon-based KRAS degrading PROTACs and uses related thereto” (Arvinas Operations, Inc., priority 2023, dated 2025).

This experiment concerns the target T1, KRas-G12D (Homo sapiens, UniProt P01116, G12D).
T1 construct: insert the HiBiT tag onto the N-terminus of one or more of the endogenous KRas alleles; host or cells: AsPC-1 HiBiT-KRasG12D knock-in clone (one tagged allele, two untagged KRasG12D alleles)
Nature of the experiment: HiBiT Degradation Assay (G12D), AsPC-1 HiBiT-KRasG12D cells, 24 hr. The following applies: for DC50: AsPC-1 cells; for Dmax: ASPC1, AsPC-1 cells, maximum degradation observed. The class given is cell-based. The gist of the method:
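Degradation was read after 24 hr compound exposure (0.5% DMSO, 37° C) by Nano-Glo HiBiT lytic luminescence in AsPC-1 cells carrying a HiBiT tag on one of three KRasG12D alleles. Signal relative to DMSO gave DC50 and Dmax by 4-parameter fit; alamar blue fluorescence monitored cytotoxicity.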
(With HiBiT, luminescence reflects the tagged protein that the partner subunit can reach.)

As usually defined, the DC50 is the midpoint of the concentration-degradation curve. As a reminder, the Dmax is the greatest extent of degradation seen.

Molecules are shown by their SMILES.

T1 sequence (P01116 1-188 isoform P01116-2 G12D): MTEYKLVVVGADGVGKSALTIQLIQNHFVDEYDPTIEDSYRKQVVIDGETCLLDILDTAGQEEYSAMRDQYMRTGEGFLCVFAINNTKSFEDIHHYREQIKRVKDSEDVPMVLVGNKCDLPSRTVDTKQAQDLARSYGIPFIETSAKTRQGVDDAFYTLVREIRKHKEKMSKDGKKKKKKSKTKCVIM

Regarding `CCc1cccc2cc(O)cc(-c3ncc4c(N5CC6CCC(C5)N6)nc(OC[C@]56CCCN5[C@@H](COC(=O)N5CCN(c7ccc8c(c7)C(=O)N(C7CCC(=O)NC7=O)C8=O)CC5)CC6)nc4c3F)c12` (stereo partly drawn) [Compound 63, [(3R,8R)-8-[[4-(3,8-diazabicyclo[3.2.1]octan-3-yl)-7-(8-ethyl-3-hydroxy-1-naphthyl)-8-fluoro-pyrido[4,3-d]pyrimidin-2-yl]oxymethyl]-1,2,3,5,6,7-hexahydropyrrolizin-3-yl]methyl4-[2-(2,6-dioxo-3-piperidyl)-1,3-dioxo-isoindolin-5-yl]piperazine-1-carboxylate], the DC50 lay within 0.25 to 1 µM.
Compound `CCc1cccc2cc(O)cc(-c3ncc4c(N5CC6CCC(C5)N6)nc(OC[C@@]56CCCN5[C@H](COC(=O)N5CCN(c7cccc8c7C(=O)N(C7CCC(=O)NC7=O)C8=O)CC5)CC6)nc4c3F)c12` (stereo partly drawn) [Compound 64, [(3S,8S)-8-[[4-(3,8-diazabicyclo[3.2.1]octan-3-yl)-7-(8-ethyl-3-hydroxy-1-naphthyl)-8-fluoro-pyrido[4,3-d]pyrimidin-2-yl]oxymethyl]-1,2,3,5,6,7-hexahydropyrrolizin-3-yl]methyl 4-[2-(2,6-dioxo-3-piperidyl)-1,3-dioxo-isoindolin-4-yl]piperazine-1-carboxylate] came in with a DC50 of 0.1 to 5.25 µM.
As for `CCc1cccc2cc(O)cc(-c3ncc4c(N5CC6CCC(C5)N6)nc(OC[C@]56CCCN5[C@@H](COC(=O)N5CCN(c7cccc8c7C(=O)N(C7CCC(=O)NC7=O)C8=O)CC5)CC6)nc4c3F)c12` (stereo partly drawn) [Compound 65, [(3R,8R)-8-[[4-(3,8-diazabicyclo[3.2.1]octan-3-yl)-7-(8-ethyl-3-hydroxy-1-naphthyl)-8-fluoro-pyrido[4,3-d]pyrimidin-2-yl]oxymethyl]-1,2,3,5,6,7-hexahydropyrrolizin-3-yl]methyl 4-[2-(2,6-dioxo-3-piperidyl)-1,3-dioxo-isoindolin-4-yl]piperazine-1-carboxylate], the DC50 fell in the range of 0.25 to 1 µM.
Regarding `CCc1cccc2cc(O)cc(-c3ncc4c(N5CC6CCC(C5)N6)nc(OCCN5CCC(CC6CCN(c7cccc8c7C(=O)N(C7CCC(=O)NC7=O)C8=O)CC6)CC5)nc4c3F)c12` (stereo not drawn) [Compound 66, 4-[4-[[1-[2-[4-(3,8-diazabicyclo[3.2.1]octan-3-yl)-7-(8-ethyl-3-hydroxy-1-naphthyl)-8-fluoro-pyrido[4,3-d]pyrimidin-2-yl]oxyethyl]-4-piperidyl]methyl]-1-piperidyl]-2-(2,6-dioxo-3-piperidyl)isoindoline-1,3-dione], the Dmax is at most 25% and the DC50 lay in the range of 0.25 to 1 µM.
As to `CCc1cccc2cc(O)cc(-c3ncc4c(N5CC6CCC(C5)N6)nc(OCCN5CCC(CC6CCN(c7ccc8c(c7)C(=O)N(C7CCC(=O)NC7=O)C8=O)CC6)CC5)nc4c3F)c12` (stereo not drawn) [Compound 67, 5-[4-[[1-[2-[4-(3,8-diazabicyclo[3.2.1]octan-3-yl)-7-(8-ethyl-3-hydroxy-1-naphthyl)-8-fluoro-pyrido[4,3-d]pyrimidin-2-yl]oxyethyl]-4-piperidyl]methyl]-1-piperidyl]-2-(2,6-dioxo-3-piperidyl)isoindoline-1,3-dione], the DC50 is over 1 µM.
In turn, `C#Cc1c(F)ccc2cc(O)cc(-c3ncc4c(C5CC6CCC(C5)N6)nc(OCCN5CCC(CC6CCN(CC7CCN(c8ccc9c(c8)CN(C8CCC(=O)NC8=O)C9=O)CC7)CC6)CC5)nc4c3F)c12` (stereo not drawn) [Compound 68] yielded a Dmax of over 70% and a DC50 of under 5.1 µM.
In turn, `C#Cc1c(F)ccc2cc(O)cc(-c3ncc4c(C5CC6CCC(C5)N6)nc(OCCN5CCC6(CC5)CCN(CC5CCN(c7ccc8c(c7)CN(C7CCC(=O)NC7=O)C8=O)CC5)CC6)nc4c3F)c12` (stereo not drawn) [Compound 70] yielded a Dmax of over 70% and a DC50 of under 5.1 µM.
In the same order, the values of `CCc1cccc2cc(O)cc(-c3ncc4c(C5CC6CCC(C5)N6)nc(OC[C@@H]5C[C@@H](OC6CCN(CC7CCN(c8ccc9c(c8)CN(C8CCC(=O)NC8=O)C9=O)CC7)CC6)CN5C)nc4c3F)c12` (stereo partly drawn) [Compound 71] are over 70% and under 5.1 µM.
In turn, `C#Cc1c(F)ccc2cc(O)cc(-c3ncc4c(C5CC6CCC(C5)N6)nc(OCCN5CCC(CN6CC7(CCN(c8ccc9c(c8)CN(C8CCC(=O)NC8=O)C9=O)CC7)C6)CC5)nc4c3F)c12` (stereo not drawn) [Compound 72] returned a Dmax of over 70% and a DC50 of under 5.1 µM.
The like results for `C#Cc1c(F)ccc2cc(O)cc(-c3ncc4c(C5CC6CCC(C5)N6)nc(OCCN5CCC(CC6CCN(CC7CCN(c8ccc9c(c8)C(=O)N(C8CCC(=O)NC8=O)C9=O)CC7)CC6)CC5)nc4c3F)c12` (stereo not drawn) [Compound 74] were, in that order, over 70% and under 5.1 µM.
`C#Cc1c(F)ccc2cc(O)cc(-c3ncc4c(N5CC6CCC(C5)N6)nc(OCCN5CCC(CC6CCN(CC7CCN(c8cccc9c8C(=O)N(C8CCC(=O)NC8=O)C9=O)CC7)CC6)CC5)nc4c3F)c12` (stereo not drawn) [Compound 75] showed a DC50 of under 5.1 µM.
The compound `C#Cc1c(F)ccc2cc(O)cc(-c3ncc4c(N5CC6CCC(C5)N6)nc(OCCN5CCC6(CC5)CCN(CC5CCN(c7ccc8c(c7)C(=O)N(C7CCC(=O)NC7=O)C8=O)CC5)CC6)nc4c3F)c12` (stereo not drawn) [Compound 76] displayed a Dmax of over 70% and a DC50 of under 5.1 µM.
The like results for `CCc1cccc2cc(O)cc(-c3ncc4c(N5CC6CCC(C5)N6)nc(OC[C@@H]5C[C@@H](OC6CCN(c7ccc8c(c7)CN(C7CCC(=O)NC7=O)C8=O)CC6)CN5C)nc4c3F)c12` (stereo partly drawn) [Compound 77] were, in that order, over 70% and under 5.1 µM.
`C#Cc1c(F)ccc2cc(O)cc(-c3ncc4c(N5CC6CCC(C5)N6)nc(OCCN5CCC(C(F)(F)C6CCN(CC7CCN(c8ccc9c(c8F)CN(C8CCC(=O)NC8=O)C9=O)CC7)CC6)CC5)nc4c3F)c12` (stereo not drawn) [Compound 79, 3-{5-[4-({4-[(1-{2-[(4-{3,8-diazabicyclo[3.2.1]octan-3-yl}-7-(8-ethynyl-7-fluoro-3-hydroxynaphthalen-1-yl)-8-fluoropyrido[4,3-d]pyrimidin-2-yl)oxy]ethyl}piperidin-4-yl)difluoromethyl]piperidin-1-yl}methyl)piperidin-1-yl]-4-fluoro-1-oxo-2,3-dihydro-1H-isoindol-2-yl}piperidine-2,6-dione] registered a Dmax of over 70% and a DC50 of under 5.1 µM.
`C#Cc1c(F)ccc2cc(O)cc(-c3ncc4c(N5CC6CCC(C5)N6)nc(OCCN5CCC(CN6CCC(CC7CCN(c8ccc9c(c8)n(C(C)C)c(=O)n9C8CCC(=O)NC8=O)CC7)CC6)CC5)nc4c3F)c12` (stereo not drawn) [Compound 80, 3-{5-[4-({1-[(1-{2-[(4-{3,8-diazabicyclo[3.2.1]octan-3-yl}-7-(8-ethynyl-7-fluoro-3-hydroxynaphthalen-1-yl)-8-fluoropyrido[4,3-d]pyrimidin-2-yl)oxy]ethyl}piperidin-4-yl)methyl]piperidin-4-yl}methyl)piperidin-1-yl]-2-oxo-3-(propan-2-yl)-2,3-dihydro-1H-1,3-benzodiazol-1-yl}piperidine-2,6-dione]: the Dmax was over 70% and the DC50 was under 5.1 µM.
The like results for `C#Cc1c(F)ccc2cc(O)cc(-c3ncc4c(N5CC6CCC(C5)N6)nc(OCCN5CCC(CN6CCC(CC7CCN(c8ccc9c(c8Cl)CN(C8CCC(=O)NC8=O)C9=O)CC7)CC6)CC5)nc4c3F)c12` (stereo not drawn) [Compound 81, 3-{4-chloro-5-[4-({1-[(1-{2-[(4-{3,8-diazabicyclo[3.2.1]octan-3-yl}-7-(8-ethynyl-7-fluoro-3-hydroxynaphthalen-1-yl)-8-fluoropyrido[4,3-d]pyrimidin-2-yl)oxy]ethyl}piperidin-4-yl)methyl]piperidin-4-yl}methyl)piperidin-1-yl]-1-oxo-2,3-dihydro-1H-isoindol-2-yl}piperidine-2,6-dione] were, in that order, over 70% and under 5.1 µM.
The like results for `C#Cc1c(F)ccc2cc(O)cc(-c3ncc4c(N5CC6CCC(C5)N6)nc(OCCN5CCC(CN6CCC(CC7CCN(c8ccc9c(c8)n(C)c(=O)n9C8CCC(=O)NC8=O)CC7)CC6)CC5)nc4c3F)c12` (stereo not drawn) [Compound 82, 3-{5-[4-({1-[(1-{2-[(4-{3,8-diazabicyclo[3.2.1]octan-3-yl}-7-(8-ethynyl-7-fluoro-3-hydroxynaphthalen-1-yl)-8-fluoropyrido[4,3-d]pyrimidin-2-yl)oxy]ethyl}piperidin-4-yl)methyl]piperidin-4-yl}methyl)piperidin-1-yl]-3-methyl-2-oxo-2,3-dihydro-1H-1,3-benzodiazol-1-yl}piperidine-2,6-dione] were, in that order, over 70% and under 5.1 µM.
For the compound `C#Cc1c(F)ccc2cc(O)cc(-c3ncc4c(N5CC6CCC(C5)N6)nc(OCCN5CCC6(CC5)CCN(CC5CCN(c7cccc8c7n(C)c(=O)n8C7CCC(=O)NC7=O)CC5)CC6)nc4c3F)c12` (stereo not drawn) [Compound 83, 3-(4-{4-[(9-{2-[(4-{3,8-diazabicyclo[3.2.1]octan-3-yl}-7-(8-ethynyl-7-fluoro-3-hydroxynaphthalen-1-yl)-8-fluoropyrido[4,3-d]pyrimidin-2-yl)oxy]ethyl}-3,9-diazaspiro[5.5]undecan-3-yl)methyl]piperidin-1-yl}-3-methyl-2-oxo-2,3-dihydro-1H-1,3-benzodiazol-1-yl)piperidine-2,6-dione], the Dmax was over 70% and the DC50 is under 5.1 µM.
The like results for `C#Cc1c(F)ccc2cc(O)cc(-c3ncc4c(N5CC6CCC(C5)N6)nc(OC[C@]56CCCN5[C@H](CN5CCN(CC7CCN(c8ccc9c(c8)CN(C8CCC(=O)NC8=O)C9=O)CC7)CC5)CC6)nc4c3F)c12` (stereo partly drawn) [Compound 84, 3-[5-[4-[[4-[[(3S,8R)-8-[[4-(3,8-diazabicyclo[3.2.1]octan-3-yl)-7-(8-ethynyl-7-fluoro-3-hydroxy-1-naphthyl)-8-fluoro-pyrido[4,3-d]pyrimidin-2-yl]oxymethyl]-1,2,3,5,6,7-hexahydropyrrolizin-3-yl]methyl]piperazin-1-yl]methyl]-1-piperidyl]-1-oxo-isoindolin-2-yl]piperidine-2,6-dione] were, in that order, over 70% and under 5.1 µM.
